In ChEMBL document CHEMBL5724696, “Autophagy assay results for EUbOPEN Chemogenomics Library” (2024):

Key:
U2OS [1] = assay: (§1) Here: values are normalized to the negative (DMSO; defined as 0% autophagy induction) and positive (250nM Torin1; mTOR inhibitor; defined as maximal inducer of autophagy = 100%) control compounds and represented as % of autophagy induction. […] The impact of autophagy induction on cells is complex and depends on the affected target. As such, the magnitude of a phenotype may not be equally mirrored in the %-value of autophagy induction and vice versa. The dynamics of the induction may indicate the mode of activation: e.g. activation via phosphorylation or a signaling cascade may occur fast, while activation via transcription factors may take considerably longer. […] Of note, treatment concentrations may be sub-optimal for specific compounds, leading to false negative annotations.; type: functional, Homo sapiens; conditions: Culturing Media DMEM, 1 % Penicillin/Streptomycin, 10% Fetal bovin serum Add-On: No, Screening Media Control DMEM, Screening Media Samples DMEM
U2OS [2] = assay: as §1; type: functional, Homo sapiens; conditions: Culturing Media DMEM, 1 % Penicillin/Streptomycin, 10% Fetal bovin serum Add-On: No, Screening Media Control DMEM, Screening Media Samples DMEM; remark: listed apart in the source
[3] = Compound Concentration 0.5 uM, Timepoint 12 hours
[4] = Compound Concentration 0.5 uM, Timepoint 24 hours
[5] = Compound Concentration 0.5 uM, Timepoint 36 hours
[6] = Compound Concentration 0.5 uM, Timepoint 60 hours
[7] = Compound Concentration 2 uM, Timepoint 12 hours
[8] = Compound Concentration 2 uM, Timepoint 24 hours
[9] = Compound Concentration 2 uM, Timepoint 36 hours
[10] = Compound Concentration 2 uM, Timepoint 60 hours
[11] = Compound Concentration 10 uM, Timepoint 12 hours
[12] = Compound Concentration 10 uM, Timepoint 24 hours
[13] = Compound Concentration 10 uM, Timepoint 36 hours
[14] = Compound Concentration 10 uM, Timepoint 60 hours

| Compound | autophagy induction (U2OS [1]; [3]) [%] | autophagy induction (U2OS [1]; [4]) [%] | autophagy induction (U2OS [1]; [5]) [%] | autophagy induction (U2OS [1]; [6]) [%] | autophagy induction (U2OS [1]; [7]) [%] | autophagy induction (U2OS [1]; [8]) [%] | autophagy induction (U2OS [1]; [9]) [%] | autophagy induction (U2OS [1]; [10]) [%] | autophagy induction (U2OS [1]; [11]) [%] | autophagy induction (U2OS [1]; [12]) [%] | autophagy induction (U2OS [1]; [13]) [%] | autophagy induction (U2OS [1]; [14]) [%] | autophagy induction (U2OS [2]; [3]) [%] | autophagy induction (U2OS [2]; [4]) [%] | autophagy induction (U2OS [2]; [5]) [%] | autophagy induction (U2OS [2]; [6]) [%] | autophagy induction (U2OS [2]; [7]) [%] | autophagy induction (U2OS [2]; [8]) [%] | autophagy induction (U2OS [2]; [9]) [%] | autophagy induction (U2OS [2]; [10]) [%] | other results |
| --- | --- | --- | --- | --- | --- | --- | --- | --- | --- | --- | --- | --- | --- | --- | --- | --- | --- | --- | --- | --- | --- |
| COc1cc(-n2cnc3cc(-c4ccc(Cl)cc4)sc3c2=O)ccc1OCCN1CCCC1 | 4.067 | -3.025 | -2.555 | 114.356 | 0.09165 | 1.732 | 0.6188 | 114.522 | -26.0106 | -13.6231 | -7.579 | 114.809 | -1.171 | 2.823 | 1.029 | -2.152 | -14.2965 | -7.54 | -8.816 | -10.4701 | autophagy induction (U2OS [2]; [11]): 7.721%; autophagy induction (U2OS [2]; [12]): 15.3334%; autophagy induction (U2OS [2]; [13]): 18.9257%; autophagy induction (U2OS [2]; [14]): 17.8082% |
| COc1ccc(Br)cc1S(=O)(=O)NC(=O)/C=C/c1ccccc1Cc1ccc2ccccc2c1 | 8.106 | 0.9964 | -0.06695 | 114.397 | -1.7757 | -1.309 | -1.876 | 114.114 | -6.0177 | -3.111 | -1.417 | 114.143 | 10.8816 | 4.975 | 5.043 | 1.1971 | -3.861 | -4.459 | -4.477 | -3.627 | autophagy induction (U2OS [2]; [11]): 11.1214%; autophagy induction (U2OS [2]; [12]): -0.228%; autophagy induction (U2OS [2]; [13]): 3.111%; autophagy induction (U2OS [2]; [14]): -1.844% |
| O=C(O)CC/C=C\C[C@@H]1CO[C@H](c2ccccc2Cl)O[C@@H]1c1ccccc1O | -2.932 | -1.885 | -1.616 | 114.317 | -0.3574 | -1.612 | -1.86 | 114.217 | -0.147 | -2.085 | -2.519 | 114.255 | -1.049 | 2.549 | 1.3825 | -3.206 | -3.826 | -5.258 | 1.68 | -8.886 | autophagy induction (U2OS [2]; [11]): 0.2701%; autophagy induction (U2OS [2]; [12]): -2.3073%; autophagy induction (U2OS [2]; [13]): -0.4123%; autophagy induction (U2OS [2]; [14]): -4.081% |
| Cc1cc([C@@H](C)Nc2cccc(-c3cc(C)c(C(=O)N[C@@H](C)C(=O)O)c(C)c3)c2)ccc1Cl | -1.358 | -0.4353 | -1.357 | 114.287 | 0.7384 | 3.004 | -0.1787 | 114.309 | 25.7636 | 8.275 | 1.804 | 114.446 | -5.116 | -3.567 | -5.902 | -1.838 | -9.884 | -6.925 | -1.645 | 5.389 | autophagy induction (U2OS [2]; [11]): 8.557%; autophagy induction (U2OS [2]; [12]): 0.1878%; autophagy induction (U2OS [2]; [13]): -1.416%; autophagy induction (U2OS [2]; [14]): -9.482% |
| Cc1nc(C#Cc2ccnc(Cl)c2)c(C)n1-c1ccc(OC(F)(F)F)cc1 | 6.745 | 0.06808 | -1.509 | 114.498 | 7.139 | -0.173 | -1.142 | 114.204 | 1.1344 | 2.694 | 0.08816 | 114.429 | 6.456 | 5.383 | 5.336 | 1.571 | -2.91 | 2.407 | -0.6644 | -12.3758 | autophagy induction (U2OS [2]; [11]): 2.059%; autophagy induction (U2OS [2]; [12]): 11.3882%; autophagy induction (U2OS [2]; [13]): 11.4393%; autophagy induction (U2OS [2]; [14]): 13.7118% |
| CCCCN(CC)c1nc(C)nc2c1c(C)cn2-c1c(C)cc(C)cc1C.Cl | 2.677 | -1.508 | -1.584 | 114.355 | 3.96 | -1.673 | -1.59 | 114.358 | -1.788 | -2.669 | -2.565 | 114.561 | 18.6925 | 15.758 | 10.5217 | 0.4484 | 10.9121 | 4.341 | 5.091 | -0.08598 | autophagy induction (U2OS [2]; [11]): 2.112%; autophagy induction (U2OS [2]; [12]): -2.1052%; autophagy induction (U2OS [2]; [13]): 3.327%; autophagy induction (U2OS [2]; [14]): 1.7732% |
| COc1ccc(/C=C/CCCCOc2ccc(C(=O)c3cccc(C(=O)O)c3)cc2CCC(=O)O)cc1 | -1.627 | -2.76 | -1.525 | 114.261 | 2.991 | -2.166 | -0.5097 | 114.413 | 6.765 | 1.033 | 1.832 | 114.224 | 4.029 | -1.055 | -5.293 | -4.291 | -4.414 | -2.822 | -3.285 | 2.49 | autophagy induction (U2OS [2]; [11]): -13.0779%; autophagy induction (U2OS [2]; [12]): -9.945%; autophagy induction (U2OS [2]; [13]): -0.5172%; autophagy induction (U2OS [2]; [14]): -0.9267% |
